Assay results reported in patent US20210393662A1, “USE OF SGLT2 INHIBITORS TO TREAT PRIMARY SCLEROSING CHOLANGITIS” (AVOLYNT, priority 2018, published 2021).
Entries after “also recorded” stand apart in the source; their conditions may differ.

Key:
[1] = Plasma pharmacokinetics after oral compressed IR tablet; format: in vivo
Description: Oral dosage forms according to the invention are typically tablets or capsules. Tablets can be obtained by direct compression of the mixed components of a dosage form, including an effective dosage amount of remogliflozin etabonate, and selected excipients, like cellulose derivatives, metacrylates, chitosan, carboxymethylstarch, or mixtures thereof. For example, a compressed tablet according to the invention, can be prepared by granulating a SGLT2 inhibitor with microcrystalline cellulose and croscarmellose sodium with a water and povidone solution. The resulting granules are dried, milled, and then blended with mannitol, microcrystalline cellulose, and croscarmellose. The blend is lubricated with magnesium stearate and compressed. […] Indeed, Tmax for an IR remogliflozin etabonate oral dosage form according to the invention occurs at 1 hour, or less, following ingestion of the dosage form by a subject.

[2] = tested on: TIA mice; experiment: TIA murine model of PSC, liver histology and survival after 7 weeks on 0.03% remogliflozin etabonate diet; format: in vivo, mouse; details: for periportal and biliary inflammation / proliferation of bile ductules: 0.03% in chow from 4 weeks of age
Description: The following Examples describe the utilization of a murine model of […] (“PSC”) to assess the effectiveness of a treatment regimen based on the oral administration of remogliflozin etabonate. The murine PSC model is based on mice that are deficient for the expression of tumor necrosis factor alpha (“TNFα”), interleukin 10 (“IL-10”), and activation-induced cytidine deaminase (“AICDA”). As the mice are deficient in TNF, IL-10, and AICDA, they are referred to, herein, as “TIA” mice.
Moreover, as AICDA is required for immunoglobulin (“Ig”) class switching, TIA mice lack IgG and IgA, a phenotype analogous to humans with hyper-IgM syndrome. Therefore, with the combination of AICDA deficiency with the risk factors associated with TNFα and IL-10 deficiencies, TIA mice also develop liver and biliary inflammation reminiscent of PSC symptoms in humans. Accordingly, the TIA model is useful for investigating mechanisms that act early in PSC pathogenesis, as well as treatments that can prevent progression to PSC.
Example 1. Orally-administered remogliflozin etabonate reduces inflammatory cell infiltration, bile ductular proliferation, and interface hepatitis in TIA mice. TIA mice were created by first breeding TNFα knock out (“KO”) C57BL/6 mice, (strain B6.129S-Tnf^tm1Gkl/J, stock #005540, Jackson Laboratories, Bar Harbor, Me.) with IL-10 KO mice (strain B10.129P2(B6)-IL10^tm1Cgn/J, Stock No. 002251, Jackson Laboratories) to produce a population of mice that were deficient in TNFα and IL-10. Because mice with a TNFα−/− and IL10−/− genotype spontaneously develop inflammatory bowel disease (“IBD”) (Hale 2012), a condition associated with poor breeding success (Nagy 2016), the mice needed for further breeding to generate an AICDA population, were generated by breeding offspring with a TNFα−/− and IL10+/− genotype with AICDA−/− mice, which were obtained from Dr. Tasuku Honjo (Muramatsu 2000)), to produce a population of TNFα−/−, IL10−/−, and AICDA+/−(“TI-hetA”) males and females. In turn, TI-hetA pairs were bred to generate populations that were 25% TIA mice, and 50% non-colitis-susceptible TI-hetA littermates that could be used as control populations. All populations were exposed to the same environment from birth. The mice were housed in polycarbonate micro-isolator cages, in individually ventilated racks, under barrier conditions that excluded all known pathogens, including Helicobacter pylori and Norovirus. Mice had ad libitum access to water, and to a standard diet (PicoLab Mouse Diet 20/5058, LabDiet, St. Louis, Mo., USA).
At four (4) weeks of age, TIA (40) and TI-hetA (22) mice were randomized into experimental groups that received either a standard diet (20 TIA and 12 het), or a standard diet formulated 0.03% remogliflozin etabonate (20 TIA and 10 het) (Avolynt Inc., USA). The mice were maintained on this diet for seven (7) weeks. Body weights were obtained three (3) times, weekly, to assess the general health of mice, and to track the development of inflammatory bowel disease (IBD). Glycosuria in the experimental groups was assessed by applying freshly voided urine directly to the glucose test patch on an Accutest® URS-10 urinary reagent test strips (Jant Pharmaceutical Corp., Encino, Calif., USA). Mice were humanely euthanized before reaching the experimental endpoint, of eleven (11) weeks of age, if they lost>15% body weight, or developed rectal prolapse.
To characterize biliary lesions in TIA mice at the end of the 7 week treatment period, liver tissue was obtained from the remogliflozin-treated, and untreated groups, for histologic examination. The excised liver tissue was fixed in Carnoy's fixative solution, and processed into paraffin blocks. The paraffin blocks were sectioned, and stained with Hematoxylin and eosin (H&E) for pathologic analysis. The H&E-stained sections were scored by an American Board of Pathology-certified pathologist. […]

[3] = TIA mice, H&E liver sections at 11 weeks, vs untreated
[4] = TIA mice, H&E liver sections at 11 weeks, vs untreated, listed as Remo

CCOC(=O)OC[C@H]1O[C@@H](Oc2nn(C(C)C)c(C)c2Cc2ccc(OC(C)C)cc2)[C@H](O)[C@@H](O)[C@@H]1O [remogliflozin etabonate]
Tmax ([1]; IR remogliflozin etabonate oral dosage form, following ingestion): ≤ 1 h | remogliflozin plasma concentration (plasma clearance to) ([1]; compressed IR tablet, 350 mg remogliflozin etabonate, oral, after 3 hrs): 40 ng/mL | maximum remogliflozin plasma concentration (Cmax) ([1]; compressed IR tablet, 350 mg remogliflozin etabonate, oral, at 1 hr post-ingestion): 160 ng/mL | number of TIA mice that required early euthanasia ([2]; Remo group versus control group): no statistical difference | early death ([2]; Remo group versus control group, not statistically significant): trend toward decreased early death | periportal and biliary inflammation [2, 3]: less inflammation | proliferation of bile ductules [2, 3]: reduces; also recorded: less proliferation | periportal and biliary inflammation [2, 4]: decrease | proliferation of bile ductules [2, 4]: decrease | inflammation at the interface between hepatic parenchyma and portal tracts (interface hepatitis) ([2]; TIA mice, 0.03% in diet for 7 weeks, H&E liver sections at 11 weeks, vs untreated): reduces; also recorded: less inflammation | development and progression of liver and biliary disease (PSC disease pathology) ([2]; TIA mice, 0.03% in diet for 7 weeks, vs standard diet): markedly less development and progression; also recorded: prevents the progression | inflammatory cell infiltration ([2]; TIA mice, orally administered): reduces
